System: MV-4-11 cells
Experiment: Gene expression microarray analysis (Affymetrix PrimeView) and GSEA
Type: cell-based, human
Set-up: RFU PODN (11730768_x_at) / Fold change /veh PODN (11730768_x_at) / RFU LINC00158 (11744669_a_at) / Fold change /veh LINC00158 (11744669_a_at) / RFU DUSP10 (11751237_a_at) / Fold change /veh DUSP10 (11751237_a_at) / RFU ID3 (11757404_x_at) / Fold change /veh ID3 (11757404_x_at) / RFU PLEKHG5 (11737974_s_at) / Fold change /veh PLEKHG5 (11737974_s_at) / RFU LRRC4B (11730491_at) / Fold change /veh LRRC4B (11730491_at) / RFU GIMAP4 (11747438_a_at) / Fold change /veh GIMAP4 (11747438_a_at) / RFU KRT8 (11758183_x_at) / Fold change /veh KRT8 (11758183_x_at) / RFU CNN1 (11734310_a_at) / Fold change /veh CNN1 (11734310_a_at) / RFU VPS37D (11726825_at) / Fold change /veh VPS37D (11726825_at) / RFU C10orf10 (11716522_x_at) / Fold change /veh C10orf10 (11716522_x_at) / RFU KIR2DL2 /// KIR2DL4 /// KIR2DL5A /// KIR2DL5B /// KIR2DS1 /// KIR2DS2 /// KIR2DS3 /// KIR2DS4 /// KIR3DL3 /// KIR3DL3 /// KIR3DS1 (11738374_at) / Fold change /veh KIR2DL2 /// KIR2DL4 /// KIR2DL5A /// KIR2DL5B /// KIR2DS1 /// KIR2DS2 /// KIR2DS3 /// KIR2DS4 /// KIR3DL3 /// KIR3DL3 /// KIR3DS1 (11738374_at) / RFU C1QL1 (11718748_at) / Fold change /veh C1QL1 (11718748_at) / RFU TMPRSS4 (11747572_a_at) / Fold change /veh TMPRSS4 (11747572_a_at) / RFU HAMP (11756126_x_at) / Fold change /veh HAMP (11756126_x_at) / RFU RNFT2 (11725882_a_at) / Fold change /veh RNFT2 (11725882_a_at) / RFU NR4A2 (11747474_a_at) / Fold change /veh NR4A2 (11747474_a_at) / RFU ABCC12 (11746883_a_at) / Fold change /veh ABCC12 (11746883_a_at) / RFU TMEM136 (11760407_x_at) / Fold change /veh TMEM136 (11760407_x_at) / RFU CLDN22 /// WWC2 (11732394_at) / Fold change /veh CLDN22 /// WWC2 (11732394_at) / RFU HLA-DPB1 (11760878_x_at) / Fold change /veh HLA-DPB1 (11760878_x_at) / RFU SPINT1 (11716480_a_at) / Fold change /veh SPINT1 (11716480_a_at) / RFU GAP43 (11754022_s_at) / Fold change /veh GAP43 (11754022_s_at) / RFU A4GNT (11735810_at) / Fold change /veh A4GNT (11735810_at) / RFU PRB3 (11715151_x_at) / Fold change /veh PRB3 (11715151_x_at) / RFU TUBB4B (11761932_at) / Fold change /veh TUBB4B (11761932_at) / RFU CAPN14 (11732068_a_at) / Fold change /veh CAPN14 (11732068_a_at) / RFU TMCC2 (11721928_a_at) / Fold change /veh TMCC2 (11721928_a_at) / RFU IRGQ (11745062_a_at) / Fold change /veh IRGQ (11745062_a_at) / RFU FAM174B (11720279_a_at) / Fold change /veh FAM174B (11720279_a_at) / RFU TMPRSS4 (11748680_a_at) / Fold change /veh TMPRSS4 (11748680_a_at) / RFU FAM212B (11763350_a_at) / Fold change /veh FAM212B (11763350_a_at) / RFU PLEKHG5 (11743358_a_at) / Fold change /veh PLEKHG5 (11743358_a_at) / RFU ZSCAN30 (11745921_a_at) / Fold change /veh ZSCAN30 (11745921_a_at) / RFU CMKLR1 (11741424_a_at) / Fold change /veh CMKLR1 (11741424_a_at) / RFU LOC101060620 /// MAPK8IP1 (11723275_at) / Fold change /veh LOC101060620 /// MAPK8IP1 (11723275_at) / RFU SPTSSB (11747773_x_at) / Fold change /veh SPTSSB (11747773_x_at) / RFU PRSS12 (11739890_at) / Fold change /veh PRSS12 (11739890_at) / RFU BIN1 (11741810_x_at) / Fold change /veh BIN1 (11741810_x_at) / RFU WNT11 (11732464_a_at) / Fold change /veh WNT11 (11732464_a_at) / RFU C10orf10 (11716521_a_at) / Fold change /veh C10orf10 (11716521_a_at) / RFU C5orf56 (11738089_at) / Fold change /veh C5orf56 (11738089_at) / RFU CYB561 (11721691_x_at) / Fold change /veh CYB561 (11721691_x_at) / RFU ANKRD19P (11752326_a_at) / Fold change /veh ANKRD19P (11752326_a_at) / RFU OR2T12 /// OR2T33 /// OR2T8 (11738714_s_at) / Fold change /veh OR2T12 /// OR2T33 /// OR2T8 (11738714_s_at) / RFU VCAN (11748164_a_at) / Fold change /veh VCAN (11748164_a_at) / RFU JSRP1 (11732532_at) / Fold change /veh JSRP1 (11732532_at) / RFU KRTAP10-11 (11738290_x_at) / Fold change /veh KRTAP10-11 (11738290_x_at) / RFU MYO3A (11730013_a_at) / Fold change /veh MYO3A (11730013_a_at) / RFU EBF3 (11725865_a_at) / Fold change /veh EBF3 (11725865_a_at) / RFU CAMK2N1 (11719241_x_at) / Fold change /veh CAMK2N1 (11719241_x_at) / RFU C5orf56 (11738088_a_at) / Fold change /veh C5orf56 (11738088_a_at) / RFU OLFML3 (11715873_a_at) / Fold change /veh OLFML3 (11715873_a_at) / RFU LOC100653217 /// NTM (11731650_a_at) / Fold change /veh LOC100653217 /// NTM (11731650_a_at) / RFU MAPK11 (11762145_a_at) / Fold change /veh MAPK11 (11762145_a_at) / RFU FIZ1 (11724087_x_at) / Fold change /veh FIZ1 (11724087_x_at) / RFU OASL (11726364_x_at) / Fold change /veh OASL (11726364_x_at) / RFU SOX15 (11748057_x_at) / Fold change /veh SOX15 (11748057_x_at) / RFU CD79A (11719716_a_at) / Fold change /veh CD79A (11719716_a_at) / RFU HIST1H1D (11736915_at) / Fold change /veh HIST1H1D (11736915_at) / RFU CASKIN2 (11723855_a_at) / Fold change /veh CASKIN2 (11723855_a_at) / RFU LOC730098 (11760151_x_at) / Fold change /veh LOC730098 (11760151_x_at) / RFU OR4N2 (11742367_at) / Fold change /veh OR4N2 (11742367_at) / RFU PRRT2 (11749266_a_at) / Fold change /veh PRRT2 (11749266_a_at) / RFU SNX32 (11753110_a_at) / Fold change /veh SNX32 (11753110_a_at) / RFU CDHR5 (11726645_a_at) / Fold change /veh CDHR5 (11726645_a_at) / RFU RCAN1 (11760418_a_at) / Fold change /veh RCAN1 (11760418_a_at) / RFU FAM167A (11723789_a_at) / Fold change /veh FAM167A (11723789_a_at) / RFU FAM26E (11764081_at) / Fold change /veh FAM26E (11764081_at) / RFU ISYNA1 (11749810_s_at) / Fold change /veh ISYNA1 (11749810_s_at) / RFU ACY1 (11761880_at) / Fold change /veh ACY1 (11761880_at) / RFU 11764098_at / Fold change /veh 11764098_at / RFU SAMD14 (11745864_x_at) / Fold change /veh SAMD14 (11745864_x_at) / RFU NPB (11741838_a_at) / Fold change /veh NPB (11741838_a_at) / RFU TMPRSS6 (11731388_a_at) / Fold change /veh TMPRSS6 (11731388_a_at) / RFU KRTAP10-2 (11738614_at) / Fold change /veh KRTAP10-2 (11738614_at) / RFU ARHGAP8 /// PRR5-ARHGAP8 (11727945_x_at) / Fold change /veh ARHGAP8 /// PRR5-ARHGAP8 (11727945_x_at) / RFU KRTAP5-7 /// NADSYN1 (11734609_at) / Fold change /veh KRTAP5-7 /// NADSYN1 (11734609_at) / RFU RASL12 (11751679_a_at) / Fold change /veh RASL12 (11751679_a_at) / RFU CDKN2B (11736163_a_at) / Fold change /veh CDKN2B (11736163_a_at) / RFU PRF1 (11729649_at) / Fold change /veh PRF1 (11729649_at) / RFU, ZNF638 /// ZNF638-IT1 / Fold change vs veh, ZNF638 /// ZNF638-IT1 / RFU, PANK3 / Fold change vs veh, PANK3 / RFU, SH3YL1 / Fold change vs veh, SH3YL1 / RFU, ZEB2 / Fold change vs veh, ZEB2 / RFU, NRIP1 / Fold change vs veh, NRIP1 / RFU, PTTG1IP / Fold change vs veh, PTTG1IP / RFU, CAPN2 / Fold change vs veh, CAPN2 / RFU, MED14 / Fold change vs veh, MED14 / RFU, SNORA58 / Fold change vs veh, SNORA58 / RFU, C1orf63 / Fold change vs veh, C1orf63 / RFU, LRRFIP1 / Fold change vs veh, LRRFIP1 / RFU, NDUFAF7 / Fold change vs veh, NDUFAF7 / RFU, SLC12A2 / Fold change vs veh, SLC12A2 / RFU, IBTK / Fold change vs veh, IBTK / RFU, ESF1 / Fold change vs veh, ESF1 / Fold change vs veh, TMEM50B / RFU, TAOK1 / Fold change vs veh, TAOK1 / RFU, ACBD3 / Fold change vs veh, ACBD3 / RFU, TMA16 / Fold change vs veh, TMA16 / RFU, RWDD3 / Fold change vs veh, RWDD3 / RFU, BCAT1 / Fold change vs veh, BCAT1 / RFU, EDEM3 / Fold change vs veh, EDEM3 / RFU, TMEM33 / Fold change vs veh, TMEM33 / RFU, WDR75 / Fold change vs veh, WDR75 / RFU, AHCTF1 / Fold change vs veh, AHCTF1 / RFU, TFRC / Fold change vs veh, TFRC / RFU, ZDHHC17 / Fold change vs veh, ZDHHC17 / RFU, NOM1 / Fold change vs veh, NOM1 / RFU, ARL8B / Fold change vs veh, ARL8B / RFU, ZBTB11 / Fold change vs veh, ZBTB11 / RFU, TAMM41 / Fold change vs veh, TAMM41 / RFU, KIAA1704 /// LOC100996395 / Fold change vs veh, KIAA1704 /// LOC100996395 / RFU, ING1 / Fold change vs veh, ING1 / RFU, TRMT61B / Fold change vs veh, TRMT61B / RFU, FUBP3 / Fold change vs veh, FUBP3 / RFU, TP53 / Fold change vs veh, TP53 / RFU, TNKS2 / Fold change vs veh, TNKS2 / RFU, ZFP14 / Fold change vs veh, ZFP14 / RFU, ACTR2 / Fold change vs veh, ACTR2 / RFU, PPP3R1 / Fold change vs veh, PPP3R1 / RFU, PIK3R1 / Fold change vs veh, PIK3R1 / RFU, HNRNPA1 / Fold change vs veh, HNRNPA1 / RFU, RNF170 / Fold change vs veh, RNF170 / RFU, ZNF28 / Fold change vs veh, ZNF28 / RFU, RNGTT / Fold change vs veh, RNGTT / RFU, OGT / Fold change vs veh, OGT / RFU, BRD1 / Fold change vs veh, BRD1 / RFU, MARS / Fold change vs veh, MARS / RFU, ZNF655 / Fold change vs veh, ZNF655 / RFU, FAHD1 / Fold change vs veh, FAHD1 / RFU, BDP1 / Fold change vs veh, BDP1 / RFU, LRRCC1 / Fold change vs veh, LRRCC1 / RFU, ARID1A / Fold change vs veh, ARID1A / RFU, ZNF146 / Fold change vs veh, ZNF146 / RFU, ZNF330 / Fold change vs veh, ZNF330 / RFU, GPN3 / Fold change vs veh, GPN3 / RFU, C9orf123 / Fold change vs veh, C9orf123 / RFU, N4BP2L2 / Fold change vs veh, N4BP2L2 / RFU, ARFIP1 / Fold change vs veh, ARFIP1 / RFU, FAM179B / Fold change vs veh, FAM179B / RFU, BCL10 / Fold change vs veh, BCL10 / RFU, UHRF1BP1L / Fold change vs veh, UHRF1BP1L / RFU, BET1 / Fold change vs veh, BET1 / RFU, CNOT2 / Fold change vs veh, CNOT2 / RFU, ZNF268 / Fold change vs veh, ZNF268 / Fold change vs veh, ZNF507 / RFU, DGCR2 / Fold change vs veh, DGCR2 / RFU, WDSUB1 / Fold change vs veh, WDSUB1 / Fold change vs veh, HSP90B1 /// MIR3652 / RFU, ADSS / Fold change vs veh, ADSS / RFU, GK / Fold change vs veh, GK / RFU, ZNF148 / Fold change vs veh, ZNF148 / RFU, TAF9 / Fold change vs veh, TAF9 / RFU, SLC1A5 / Fold change vs veh, SLC1A5 / RFU, SLMO2 / Fold change vs veh, SLMO2 / RFU, ABCC4 / Fold change vs veh, ABCC4 / RFU, LOC101060439 /// RAP1B / Fold change vs veh, LOC101060439 /// RAP1B / RFU, RFX7 / Fold change vs veh, RFX7 / RFU, GTPBP10 / Fold change vs veh, GTPBP10 / RFU, CNEP1R1 / Fold change vs veh, CNEP1R1 / RFU, BIVM-ERCC5 /// ERCC5 / Fold change vs veh, BIVM-ERCC5 /// ERCC5 / RFU, ILF3 / Fold change vs veh, ILF3 / RFU 11762660_at / Fold change /veh 11762660_at / RFU VCAN (11757783_s_at) / Fold change /veh VCAN (11757783_s_at) / RFU DDX43 (11728927_at) / Fold change /veh DDX43 (11728927_at) / RFU KRT8 (11758188_x_at) / Fold change /veh KRT8 (11758188_x_at) / RFU NKD1 (11759106_at) / Fold change /veh NKD1 (11759106_at) / RFU SRD5A1 (11742802_a_at) / Fold change /veh SRD5A1 (11742802_a_at) / RFU TPSAB1 /// TPSB2 (11721975_s_at) / Fold change /veh TPSAB1 /// TPSB2 (11721975_s_at) / RFU GSTM3 (11746129_a_at) / Fold change /veh GSTM3 (11746129_a_at) / RFU IL23R (11737362_x_at) / Fold change /veh IL23R (11737362_x_at) / RFU TMEM51 (11727254_a_at) / Fold change /veh TMEM51 (11727254_a_at) / RFU PIWIL2 (11732686_x_at) / Fold change /veh PIWIL2 (11732686_x_at) / RFU ORM1 (11744905_x_at) / Fold change /veh ORM1 (11744905_x_at) / RFU CCDC152 (11743942_at) / Fold change /veh CCDC152 (11743942_at) / RFU ECM1 (11717891_a_at) / Fold change /veh ECM1 (11717891_a_at) / RFU IL23R (11748794_a_at) / Fold change /veh IL23R (11748794_a_at) / RFU TNFAIP8L3 (11732012_x_at) / Fold change /veh TNFAIP8L3 (11732012_x_at) / RFU MBOAT4 (11741988_at) / Fold change /veh MBOAT4 (11741988_at) / RFU 11764193_at / Fold change /veh 11764193_at / RFU TMEM53 (11763286_at) / Fold change /veh TMEM53 (11763286_at) / RFU MAGEB2 (11727129_at) / Fold change /veh MAGEB2 (11727129_at) / RFU TMEM200A (11744735_a_at) / Fold change /veh TMEM200A (11744735_a_at) / RFU CCDC152 (11751479_a_at) / Fold change /veh CCDC152 (11751479_a_at) / RFU FAM211A (11726209_a_at) / Fold change /veh FAM211A (11726209_a_at) / RFU RGS16 (11746705_a_at) / Fold change /veh RGS16 (11746705_a_at) / RFU VCAN (11755009_s_at) / Fold change /veh VCAN (11755009_s_at) / RFU RHOB (11743442_s_at) / Fold change /veh RHOB (11743442_s_at) / RFU RGS16 (11720943_a_at) / Fold change /veh RGS16 (11720943_a_at) / RFU RGS16 (11720944_at) / Fold change /veh RGS16 (11720944_at) / RFU, VPS4B / Fold change vs veh, VPS4B / RFU, CREB1 / Fold change vs veh, CREB1 / RFU, DNAJC13 / Fold change vs veh, DNAJC13 / RFU, GNAQ / Fold change vs veh, GNAQ / RFU, CDK5R1 / Fold change vs veh, CDK5R1 / RFU, ZRANB3 / Fold change vs veh, ZRANB3 / RFU, CUL4A / Fold change vs veh, CUL4A / RFU, CCNY / Fold change vs veh, CCNY / RFU, UFL1 / Fold change vs veh, UFL1 / RFU, COG3 / Fold change vs veh, COG3 / RFU, DIAPH2 / Fold change vs veh, DIAPH2 / RFU, SKA2 / Fold change vs veh, SKA2 / RFU, AFF3 / Fold change vs veh, AFF3 / RFU, LMF1 / Fold change vs veh, LMF1 / RFU, IPO11 / Fold change vs veh, IPO11 / RFU, DFFB / Fold change vs veh, DFFB / RFU, FOXP1 / Fold change vs veh, FOXP1 / RFU, CARD8 / Fold change vs veh, CARD8 / RFU, STRN3 / Fold change vs veh, STRN3 / RFU, ADK / Fold change vs veh, ADK / RFU, RASSF2 / Fold change vs veh, RASSF2 / RFU, WIPF1 / Fold change vs veh, WIPF1 / RFU, LARP1B / Fold change vs veh, LARP1B / RFU, RASA1 / Fold change vs veh, RASA1 / RFU, RB1 / Fold change vs veh, RB1 / RFU, PPFIA1 / Fold change vs veh, PPFIA1 / RFU, MAT2A / Fold change vs veh, MAT2A / RFU, CCT5 / Fold change vs veh, CCT5 / RFU, WDR92 / Fold change vs veh, WDR92 / RFU, CUX1 / Fold change vs veh, CUX1 / RFU, TTC7A / Fold change vs veh, TTC7A / RFU, TMEM135 / Fold change vs veh, TMEM135 / RFU, DEPTOR / Fold change vs veh, DEPTOR / RFU, CPM / Fold change vs veh, CPM / RFU, DNAJB6 / Fold change vs veh, DNAJB6 / RFU, CACNA2D3 / Fold change vs veh, CACNA2D3 / RFU, DTX4 / Fold change vs veh, DTX4 / RFU, TFCP2 / Fold change vs veh, TFCP2 / RFU, GMCL1 /// GMCL1P1 / Fold change vs veh, GMCL1 /// GMCL1P1 / RFU, AEBP2 / Fold change vs veh, AEBP2 / RFU, SNHG1 /// SNORD22 /// SNORD25 /// SNORD26 /// SNORD27 /// SNORD28 /// SNORD29 /// SNORD31 / Fold change vs veh, SNHG1 /// SNORD22 /// SNORD25 /// SNORD26 /// SNORD27 /// SNORD28 /// SNORD29 /// SNORD31 / Fold change (Aza/veh), C12orf56 (ProbeSet 11735607_a_at) / Fold change (ACY-1035/veh), C12orf56 (ProbeSet 11735607_a_at) / Fold change (Aza/veh), FGFR1OP (ProbeSet 11751329_s_at) / Fold change (ACY-1035/veh), FGFR1OP (ProbeSet 11751329_s_at) / Fold change (Aza/veh), VPS36 (ProbeSet 11739960_a_at) / Fold change (ACY-1035/veh), VPS36 (ProbeSet 11739960_a_at) / RFU SYPL1 (11715823_x_at) / Fold change /veh SYPL1 (11715823_x_at) / RFU IGFBP7 (11715501_s_at) / Fold change /veh IGFBP7 (11715501_s_at) / RFU REEP3 (11722064_at) / Fold change /veh REEP3 (11722064_at) / RFU IGLL1 (11728026_x_at) / Fold change /veh IGLL1 (11728026_x_at): dose or concentration left out as unconfirmed
Conditions: MV-4-11 cells, 48 hours

For `Nc1ccc(-c2cccs2)cc1NC(=O)c1ccc2c(c1)cc(C1CC1)n2CCN1CCOCC1` [ACY-1035], which “RFU LOC100653217 /// NTM (11731650_a_at)” value is on record?
Its value is 9.86 RFU.

— publication PMC5218480 (PLoS ONE, 2017)
